Here are results for 13 compounds from PubChem BioAssay (NCI).

Among the test systems are CCRF-CEM leukemia; EKVX NSCLC; HOP-62 NSCLC; HS 578T breast; LOX IMVI melanoma; M14 melanoma; MALME-3M melanoma; MOLT-4 leukemia; NCI-H23 lung; NCI-H522 lung; PC-3 prostate; SK-MEL-5 melanoma; SK-OV-3 ovarian; SN12C renal; SNB-75 CNS; SR leukemia; UO-31 renal; A498 renal.
Holding throughout (assay): NCI tumour cell line growth inhibition, 48 h

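96-well plates; 48 h exposure; 5 concentrations. Endpoints by linear interpolation between flanking doses. Not reached: highest tested concentration assigned. TGI denotes the concentration required for complete inhibition of growth.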

For the compound `CCC(C)C(C(=O)N/N=C1/SCC(=O)N1c1ccccc1)C(=O)N/N=C1/SCC(=O)N1c1ccccc1` (configuration not stated), the TGI in the test on CCRF-CEM leukemia, in the test with EKVX NSCLC, in the test with HOP-62 NSCLC, in the test on HS 578T breast, with LOX IMVI melanoma and in the test with M14 melanoma was over 100 µM each time. The TGI in the test on MALME-3M melanoma was 44.7 µM; with MOLT-4 leukemia it was over 100 µM; in the test with NCI-H23 lung it was over 100 µM; with NCI-H522 lung, over 100 µM; with PC-3 prostate, over 100 µM; in the test on SK-MEL-5 melanoma, 41.7 µM. Moreover, the TGI with SK-OV-3 ovarian was 74.6 µM; in the test on SN12C renal, over 100 µM; in the test with SNB-75 CNS, over 100 µM; in the test with SR leukemia it was over 100 µM; with UO-31 renal, over 100 µM.
With `Cc1cc(C)nc(NS(=O)(=O)c2ccc(NNc3c4ccccc4nc4c(C(=O)Nc5ccc(S(=O)(=O)Nc6ncccn6)cc5)cccc34)cc2)n1`, the TGI was 59.9 µM with CCRF-CEM leukemia; 54.3 µM in the test on EKVX NSCLC; over 100 µM with HOP-62 NSCLC; over 100 µM in the test on HS 578T breast; 45.1 µM in the test with LOX IMVI melanoma; over 100 µM with M14 melanoma. Besides, the TGI was 60.3 µM in the test on MALME-3M melanoma; 92.9 µM in the test on MOLT-4 leukemia; 69.5 µM with NCI-H23 lung; 48.9 µM in the test with NCI-H522 lung; 71.3 µM with PC-3 prostate; 47.5 µM in the test with SK-MEL-5 melanoma. The TGI in the test on SK-OV-3 ovarian is 89.9 µM; in the test on SN12C renal, 75.1 µM; with SNB-75 CNS, 73.9 µM; in the test on SR leukemia, 59 µM; in the test on UO-31 renal, over 100 µM.
In the case of `COC(=O)c1c(O)ccc2c1c1c(n2Cc2ccccc2)C(=O)c2ccccc2C1=O`, the TGI with CCRF-CEM leukemia was determined as 46.8 µM; in the test with EKVX NSCLC, 36.6 µM; in the test with HOP-62 NSCLC, 38.8 µM; in the test with HS 578T breast, 43.3 µM; in the test on LOX IMVI melanoma, 41.6 µM; with M14 melanoma, 37.4 µM. The TGI in the test with MALME-3M melanoma was 54.7 µM; with MOLT-4 leukemia it was 25.3 µM; in the test on NCI-H23 lung it was 31.6 µM; in the test with NCI-H522 lung, 23.8 µM; in the test on PC-3 prostate it was 29.4 µM; in the test with SK-MEL-5 melanoma, 31.9 µM. Further, the TGI in the test on SK-OV-3 ovarian was 30.1 µM; in the test with SN12C renal, 28.1 µM; in the test with SNB-75 CNS, 29.1 µM; in the test on SR leukemia it was 50.1 µM; in the test with UO-31 renal it was 22.1 µM.
With `N=c1oc2ccc([N+](=O)[O-])cc2cc1C(=O)NCc1ccccc1`, the TGI with CCRF-CEM leukemia was over 100 µM; in the test on EKVX NSCLC, over 100 µM; with HOP-62 NSCLC it was over 100 µM; with HS 578T breast it was 42.9 µM; in the test with LOX IMVI melanoma it was 32.2 µM; in the test with M14 melanoma, 61.3 µM. Further, the TGI in the test with MALME-3M melanoma is 26.7 µM; with MOLT-4 leukemia it was over 100 µM; with NCI-H522 lung, 25.8 µM; with PC-3 prostate, 40.3 µM; with SK-MEL-5 melanoma it was 41.6 µM; in the test with SK-OV-3 ovarian, over 100 µM. Also, the TGI is 36.9 µM in the test with SN12C renal, 29.5 µM in the test on SNB-75 CNS, over 100 µM in the test with SR leukemia and 35.8 µM in the test on UO-31 renal.
In the case of `Cc1oc2c(c1C)S(=O)(=O)C(C#N)C(c1ccccc1)N2` (configuration not stated), the TGI in the test with A498 renal is over 100 µM; in the test on CCRF-CEM leukemia it was 48.2 µM; in the test on EKVX NSCLC, over 100 µM; in the test on HOP-62 NSCLC it was over 100 µM; in the test on HS 578T breast it was over 100 µM; in the test with LOX IMVI melanoma, over 100 µM. The TGI in the test on M14 melanoma is over 100 µM; in the test on MALME-3M melanoma it was over 100 µM; in the test with MOLT-4 leukemia it was 65.5 µM; with NCI-H23 lung, over 100 µM; with NCI-H522 lung, 40.2 µM; in the test with PC-3 prostate it was over 100 µM. The TGI in the test on SK-MEL-5 melanoma, in the test with SK-OV-3 ovarian, in the test on SN12C renal, in the test on SNB-75 CNS and with UO-31 renal was over 100 µM each time.
For the compound `Cc1ccc2nc(CN3CCCC(O)C3)cc(=O)n2c1` (configuration not stated), the TGI in the test on CCRF-CEM leukemia, with EKVX NSCLC, in the test on HOP-62 NSCLC, in the test on HS 578T breast, in the test with LOX IMVI melanoma and with M14 melanoma was over 100 µM each time. The TGI in the test with MALME-3M melanoma, in the test on MOLT-4 leukemia, in the test on NCI-H23 lung, in the test on NCI-H522 lung, in the test with PC-3 prostate and in the test with SK-OV-3 ovarian was over 100 µM in each case. Also, the TGI in the test with SN12C renal, with SNB-75 CNS, in the test on SR leukemia and with UO-31 renal was over 100 µM each time.
As for `Cc1csc2nc3c(cnn3C)c(=S)n12`, the TGI in the test on CCRF-CEM leukemia, with EKVX NSCLC, with HOP-62 NSCLC, with HS 578T breast, with LOX IMVI melanoma and in the test on M14 melanoma was over 100 µM each time. Also, the TGI with MALME-3M melanoma is over 100 µM; with MOLT-4 leukemia, over 100 µM; in the test with NCI-H23 lung, over 100 µM; in the test on NCI-H522 lung it was 41.9 µM; in the test on PC-3 prostate, over 100 µM; in the test on SK-MEL-5 melanoma, over 100 µM. The TGI in the test on SK-OV-3 ovarian, in the test with SN12C renal, in the test with SNB-75 CNS, in the test with SR leukemia and in the test with UO-31 renal was over 100 µM in each case.
For the compound `Cc1ccc(-n2cnc3c(N)nc(N)nc32)cc1`, the TGI with A498 renal, in the test with CCRF-CEM leukemia, with EKVX NSCLC, in the test with HOP-62 NSCLC, in the test with HS 578T breast and in the test on LOX IMVI melanoma was over 100 µM in each case. Also, the TGI with M14 melanoma, in the test with MALME-3M melanoma, in the test with MOLT-4 leukemia, with NCI-H23 lung, in the test with NCI-H522 lung and in the test with PC-3 prostate was over 100 µM each time. Besides, the TGI in the test on SK-MEL-5 melanoma, in the test with SK-OV-3 ovarian, with SN12C renal, with SNB-75 CNS and with UO-31 renal was over 100 µM each time.
Consider `CC12CCC3[C@@H](CC3(C)C)C(O)(CCC1=O)C2` (some centres not stated), for which the TGI in the test with CCRF-CEM leukemia, with EKVX NSCLC, with HOP-62 NSCLC, in the test with HS 578T breast, with LOX IMVI melanoma and in the test on M14 melanoma was over 100 µM throughout. Moreover, the TGI in the test with MALME-3M melanoma, with MOLT-4 leukemia, in the test with NCI-H23 lung, in the test with PC-3 prostate, in the test on SK-MEL-5 melanoma and in the test on SK-OV-3 ovarian was over 100 µM each time. In addition, the TGI in the test on SN12C renal, in the test on SNB-75 CNS, with SR leukemia and in the test on UO-31 renal was over 100 µM in each case.
Consider `O=c1[nH]n(Cc2ccccc2Cl)c2ccc([N+](=O)[O-])cc12`, for which the TGI was 64.3 µM in the test on A498 renal; over 100 µM with CCRF-CEM leukemia; over 100 µM with EKVX NSCLC; over 100 µM in the test with HOP-62 NSCLC; over 100 µM in the test on HS 578T breast; over 100 µM in the test with LOX IMVI melanoma. Moreover, the TGI with M14 melanoma is over 100 µM; in the test with MALME-3M melanoma, over 100 µM; with MOLT-4 leukemia, over 100 µM; with NCI-H23 lung it was over 100 µM; in the test with NCI-H522 lung, over 100 µM; in the test on SK-MEL-5 melanoma it was 52.8 µM. Moreover, the TGI in the test with SN12C renal, in the test with SNB-75 CNS, in the test on SR leukemia and with UO-31 renal was over 100 µM each time.
Take `CN(C)C=Nc1cccc2nsnc12`: the TGI in the test with A498 renal, in the test on CCRF-CEM leukemia, in the test on EKVX NSCLC, in the test on HOP-62 NSCLC, in the test with HS 578T breast and in the test with LOX IMVI melanoma was over 100 µM throughout. In addition, the TGI with M14 melanoma, with MALME-3M melanoma, with MOLT-4 leukemia, in the test with NCI-H23 lung, in the test with NCI-H522 lung and in the test on PC-3 prostate was over 100 µM each time. Besides, the TGI in the test on SK-MEL-5 melanoma, in the test with SK-OV-3 ovarian, with SN12C renal, with SNB-75 CNS and in the test on UO-31 renal was over 100 µM in each case.
In the case of `O=C(c1cc(Cl)cc(Cl)c1)N(C(=O)N1CCN(c2ccccc2)CC1)c1ccccc1`, the TGI with A498 renal, in the test with CCRF-CEM leukemia, in the test with EKVX NSCLC, in the test on HOP-62 NSCLC, in the test on HS 578T breast and in the test with LOX IMVI melanoma was over 100 µM each time. Also, the TGI in the test with M14 melanoma, in the test on MALME-3M melanoma, in the test with MOLT-4 leukemia, in the test with NCI-H23 lung, in the test on NCI-H522 lung and in the test on PC-3 prostate was over 100 µM throughout. In addition, the TGI is 75.7 µM in the test with SK-MEL-5 melanoma; over 100 µM in the test with SK-OV-3 ovarian; over 100 µM in the test with SN12C renal; over 100 µM in the test on SNB-75 CNS; over 100 µM in the test on UO-31 renal.
Take `CCOC(=O)NNC(=O)C1CSC(c2ccccc2)N1C(C)=O` (configuration not stated): the TGI in the test on A498 renal, in the test with CCRF-CEM leukemia, in the test on EKVX NSCLC, in the test with HOP-62 NSCLC, in the test on HS 578T breast and in the test with LOX IMVI melanoma was over 100 µM throughout. Besides, the TGI in the test on M14 melanoma, with MALME-3M melanoma, with MOLT-4 leukemia, in the test with NCI-H23 lung, in the test on NCI-H522 lung and in the test on PC-3 prostate was over 100 µM in each case. The TGI in the test with SK-MEL-5 melanoma, in the test with SK-OV-3 ovarian, in the test with SN12C renal, in the test with SNB-75 CNS and in the test on UO-31 renal was over 100 µM each time.
